Where “and” joins values, the source holds several entries; their conditions need not be identical. Identical values can stand only once.
Tested on: 282377-053-R-J1-PDC complex spheroid viability
Assay: Anticancer human tumor 282377-053-R-J1-PDC patient-derived colon adenocarcinoma cell line growth inhibition [POLQ]
Details: for viability, T/C: stronger effect = lower value
Experimental: Multicellular complex tumor spheroid response to Polymerase (POL) inhibitors (novobiocin, ART-558, RP6685) in combination with a variety of drugs and investigational agents in selected tumor cell lines
The POL inhibitors (novobiocin, ART-558, and RP6685) were evaluated both individually and in combination with standard of care and investigational anticancer small molecules within a complex spheroid model of solid tumors. . Complex spheroids include a stromal component modeled by human endothelial cells (HUVEC) and fibroblasts modeled by human mesenchymal stem cells (MSCs). The concentration ranges selected for each drug and investigational agent were based upon clinically achievable concentrations if the clinical Cmax of the agent was known.
Compounds. The drugs and investigational agents: novobiocin (NSC847541), ART-558 (NSC835418), RP-6685 (NSC848927), peposertib (NSC802822), ceralasertib (NSC780249), elimusertib (NSC800525), camonsertib (NSC841442), AZD-1390 (NSC803789), olaparib (NSC753686), talazoparib (NSC767125), rucaparib (NSC756644), sotorasib (NSC818433), MRTX-1133 (NSC836407), SN-38 (NSC673596), topotecan (NSC609699), epotoside (NSC141540), doxorubicin (NSC123127), gemcitabine (NSC613327), 5-fluorouracil (NSC19893), paclitaxel (NSC125973), vemurafenib (NSC761431), MSA-2 (NSC828583), SN-011 (NSC837082), adavosertib (NSC754352), prexasertib (NSC758257), carboplatin (NSC241240) and oxaliplatin (NSC266046), were obtained from the National Cancer Institute (NCI) Developmental Therapeutics Program Chemical Repository (21). The FDA-approved anticancer drug set is available from the Developmental Therapeutics Program at https://dtp.cancer.gov/organization/dscb/obtaining/. […] The stock solutions were prepared in dimethyl sulfoxide (DMSO, Sigma-Aldrich, St. Louis, MO, cat. D2650), except for the platinum compounds which were prepared in saline (Quality Biological, Gaithersburg, MD, cat. 114-055-101), at 800-fold the tested concentration and stored at -70 degrees C prior to their use. All drugs and investigational agents were tested over a range starting from a high concentration at or near the clinical Cmax and decreasing in half-log increments. If the clinical Cmax for an agent had not been determined, the highest concentration tested was 10 microM, except for SN-38, which was tested at a high concentration of 1 microM.
Cell Culture. All cells were maintained in an incubator at 37 degrees C and 5% CO2 with 95% humidity. The PDC lines were cultured according to standard operating procedures established by the NCI PDMR (https://pdmr.cancer.gov). Table 3 of the manuscript, lists the cell lines along with the number of the three cell types plated to form the mct-spheroids and media for tumor cell growth. After thawing, all PDC lines, except 997537-175-T-J1-PDC and 415267-285-R-J2-PDC, were cultured in Matrigel-coated flasks prepared with a working solution of 1X Ham's F-12 nutrient mix, without supplementation (Thermo Fisher Scientific, cat. 11765054), 100 U/mL penicillin-streptomycin (Thermo Fisher Scientific, cat. 15140122), and 2.5% Matrigel (Corning Inc., Corning, NY, cat. 354248) for the first three passages. The two PDC lines 997537-175-T-J1-PDC and 415267-285-R-J2-PDC were cultured on uncoated flasks. The 857933-349-R-J2-PDC line was cultured in 6C/Colon 1B media containing advanced DMEM/F-12 (Thermo Fisher Scientific, cat. 12634028), 10 mM HEPES (Thermo Fisher Scientific, cat. 15630080), 1X GlutaMAX supplement (Thermo Fisher Scientific, cat. 35050061), 0.1 mg/mL primocin (InvivoGen, San Diego, CA, cat. ant-pm-2), 10% defined fetal bovine serum, heat inactivated (HyClone Laboratories Inc., Logan, UT, cat. SH30070.03HI), 50% L-WRN conditioned media (ATCC, cat. CRL-3276), 1.25 mM N-Acetyl-L-cysteine (Sigma-Aldrich, cat. A9165), 10 mM nicotinamide (Sigma-Aldrich, cat. N0636), 1X B-27 supplement (Thermo Fisher Scientific, cat. 17504044), 1X N-2 supplement (Thermo Fisher Scientific, cat. […]
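Note: spheroids exposed to compounds for seven days.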
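Throughout, for viability, T/C: 100% = DMSO vehicle control viability.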

CC[C@@]1(O)C(=O)OCc2c1cc1n(c2=O)Cc2cc3c(CN(C)C)c(O)ccc3nc2-1 + Cc1cccc(N(C)C(=O)C2C(O)CCN2c2nc(C)cc(C(F)(F)F)c2C#N)c1
IC50 (curve of first compound, second compound 0.0316 µM): > 100 nM | IC50 (curve of first compound, second compound 0.1 µM): > 100 nM | IC50 (curve of first compound, second compound 0.316 µM): > 100 nM | IC50 (curve of first compound, second compound 1 µM): > 100 nM | IC50 (curve of first compound, second compound 3.16 µM): > 100 nM | IC50 (curve of first compound, second compound 10 µM): > 100 nM | viability, T/C (second compound 0.0316 µM, first compound 0.000316 µM): 97.1% | viability, T/C (second compound 0.0316 µM, first compound 0.001 µM): 107% | viability, T/C (second compound 0.0316 µM, first compound 0.00316 µM): 118% | viability, T/C (second compound 0.0316 µM, first compound 0.01 µM): 111% | viability, T/C (second compound 0.0316 µM, first compound 0.0316 µM): 94.4% | viability, T/C (second compound 0.0316 µM, first compound 0.1 µM): 76.1% | viability, T/C (second compound 0.1 µM, first compound 0.000316 µM): 98.3% | viability, T/C (second compound 0.1 µM, first compound 0.001 µM): 108% | viability, T/C (second compound 0.1 µM, first compound 0.00316 µM): 86.1% | viability, T/C (second compound 0.1 µM, first compound 0.01 µM): 109% | viability, T/C (second compound 0.1 µM, first compound 0.0316 µM): 87.6% | viability, T/C (second compound 0.1 µM, first compound 0.1 µM): 88% | viability, T/C (second compound 0.316 µM, first compound 0.000316 µM): 90.6% | viability, T/C (second compound 0.316 µM, first compound 0.001 µM): 97.8% | viability, T/C (second compound 0.316 µM, first compound 0.00316 µM): 101% | viability, T/C (second compound 0.316 µM, first compound 0.01 µM): 105% | viability, T/C (second compound 0.316 µM, first compound 0.0316 µM): 107% | viability, T/C (second compound 0.316 µM, first compound 0.1 µM): 77.2% | viability, T/C (second compound 1 µM, first compound 0.000316 µM): 93% | viability, T/C (second compound 1 µM, first compound 0.001 µM): 92.6% | viability, T/C (second compound 1 µM, first compound 0.00316 µM): 124% | viability, T/C (second compound 1 µM, first compound 0.01 µM): 105% | viability, T/C (second compound 1 µM, first compound 0.0316 µM): 124% | viability, T/C (second compound 1 µM, first compound 0.1 µM): 71.9% | viability, T/C (second compound 3.16 µM, first compound 0.000316 µM): 97.5% | viability, T/C (second compound 3.16 µM, first compound 0.001 µM): 102% | viability, T/C (second compound 3.16 µM, first compound 0.00316 µM): 98.5% | viability, T/C (second compound 3.16 µM, first compound 0.01 µM): 94.6% | viability, T/C (second compound 3.16 µM, first compound 0.0316 µM): 101% | viability, T/C (second compound 3.16 µM, first compound 0.1 µM): 71% | viability, T/C (second compound 10 µM, first compound 0.000316 µM): 87.5% | viability, T/C (second compound 10 µM, first compound 0.001 µM): 93.9% | viability, T/C (second compound 10 µM, first compound 0.00316 µM): 92.3% | viability, T/C (second compound 10 µM, first compound 0.01 µM): 81.2% | viability, T/C (second compound 10 µM, first compound 0.0316 µM): 96.2% | viability, T/C (second compound 10 µM, first compound 0.1 µM): 65.2%

CC(=O)O[C@H]1C(=O)[C@@]2(C)[C@H]([C@H](OC(=O)c3ccccc3)[C@]3(O)C[C@H](OC(=O)[C@H](O)[C@@H](NC(=O)c4ccccc4)c4ccccc4)C(C)=C1C3(C)C)[C@]1(OC(C)=O)CO[C@@H]1C[C@@H]2O
viability, T/C (compound 0.00949 µM): 93.6% and 91% and 48.6% | viability, T/C (compound 0.03 µM): 40.4% and 58.8% and 17.8% | viability, T/C (compound 0.0949 µM): 40.3% and 41.6% and 17.4% | viability, T/C (compound 0.3 µM): 42% and 47.9% and 19% | viability, T/C (compound 0.949 µM): 42.7% and 50.8% and 21.5% | viability, T/C (compound 3 µM): 47.6% and 61% and 28.4%

O=C(c1cc(Cc2n[nH]c(=O)c3ccccc23)ccc1F)N1CCN(C(=O)C2CC2)CC1
viability, T/C (compound 0.0316 µM): 96.2% and 95.6% and 96.1% | viability, T/C (compound 0.1 µM): 94.5% and 97.4% and 107% | viability, T/C (compound 0.316 µM): 118% and 105% and 95.8% | viability, T/C (compound 1 µM): 122% and 110% and 114% | viability, T/C (compound 3.16 µM): 100% and 97.5% and 110% | viability, T/C (compound 10 µM): 95.8% and 105% and 110% | IC50 (curve of compound): > 10000 nM
